Patent EP4786466A1, “QUINAZOLINE DERIVATIVE, SALT THEREOF, AND PHARMACEUTICAL COMPOSITION COMPRISING SAME AS ACTIVE INGREDIENT” (Korea Research Institute of Chemical Technology, priority 2023, dated 2025)
Where two headings read alike, the source gives them in different places.

Key:
in vitro = settings: human
Protocol: (§1) MCF7 breast cancer cell lines and MCF10A normal breast cancer cell lines were treated with serial dilutions of the compounds of the present invention ranging from 1 µM to 15.63 nM for 72 hours. Cell viability was measured by the WST-8 assay (Cyto XTM cell viability assay kit; LPS solution, Daejeon, Korea) according to the manufacturer's instructions.

[1] = system: MCF7 breast cancer cell lines; test: Cell viability analysis, WST-8 assay, MCF7; settings: Homo sapiens, MCF7, 72 h; for viability at 1.1 µM: read-out: Cell viability (%) WST-8, MCF7, footnote d: concentration 1.1 µM, 72 hours; for viability at 1 µM: read-out: Cell viability (%) WST-8, MCF7 (1 µM), compound 1 µM, 72 hours
Protocol: as §1

[2] = target: T1, Recombinant GST-TAG-MASTL (Homo sapiens, UniProt Q96GX5); test: HTRF-based kinase assay (HTRF KinEASE assay kit); format: biochemical; settings: for activity at 1 µM: read-out: MASTL activity (%) HTRF (1 µM)
T1 construct: GST; purchased Thermo Fisher Scientific
T1 sequence (Q96GX5 1-879): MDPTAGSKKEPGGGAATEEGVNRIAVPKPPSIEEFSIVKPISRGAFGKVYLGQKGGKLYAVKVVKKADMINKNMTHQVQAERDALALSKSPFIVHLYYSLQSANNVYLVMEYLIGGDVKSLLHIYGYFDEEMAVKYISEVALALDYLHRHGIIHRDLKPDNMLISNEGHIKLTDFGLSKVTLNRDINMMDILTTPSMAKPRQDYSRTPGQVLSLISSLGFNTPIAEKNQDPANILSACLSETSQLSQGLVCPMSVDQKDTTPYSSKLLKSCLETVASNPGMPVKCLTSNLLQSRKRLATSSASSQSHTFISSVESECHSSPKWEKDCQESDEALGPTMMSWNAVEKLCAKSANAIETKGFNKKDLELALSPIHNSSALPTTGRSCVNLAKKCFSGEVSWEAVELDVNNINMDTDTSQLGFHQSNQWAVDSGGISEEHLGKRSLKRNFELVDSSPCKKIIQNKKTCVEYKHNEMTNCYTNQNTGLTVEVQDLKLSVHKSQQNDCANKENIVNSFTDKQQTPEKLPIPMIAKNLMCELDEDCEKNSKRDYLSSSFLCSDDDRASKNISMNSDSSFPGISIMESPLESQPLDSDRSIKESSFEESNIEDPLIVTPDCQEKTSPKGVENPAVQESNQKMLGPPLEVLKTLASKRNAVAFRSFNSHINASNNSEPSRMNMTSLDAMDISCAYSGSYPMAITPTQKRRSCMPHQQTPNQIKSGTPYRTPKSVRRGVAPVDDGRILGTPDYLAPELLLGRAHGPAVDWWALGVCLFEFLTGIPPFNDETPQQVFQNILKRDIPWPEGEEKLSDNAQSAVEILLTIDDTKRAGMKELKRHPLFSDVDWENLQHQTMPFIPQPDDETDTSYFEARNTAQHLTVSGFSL
Text: Recombinant GST-TAG-MASTL (Thermo Fisher Scientific, MA, USA) was used for HTRF-based kinase assays. The HTRF KinEASE assay kit (CisBio, MA, USA) was used according to the manufacturer's instructions.

## Cc1nn(C)c(C)c1Nc1nc(Nc2ccc(CC#N)cc2)nc2ccccc12 [3c, 2-(4-((4-((1,3,5-trimethyl-1G-pyrazol-4-yl)amino)quinazolin-2-yl)amino)phenyl)acetonitrile]
In vitro; mcf10a cells
  viability at 1.1 µM: 115%
[1]
  viability at 1.1 µM: 110%
[2]
  activity at 1 µM: 123%

## CNC(=O)c1ccc(Nc2nc(Nc3cc(C4CC4)[nH]n3)c3ccccc3n2)cc1 [4ae, 4-((4-((5-cyclopropyl-1G-pyrazol-3-yl)amino)quinazolin-2-yl)amino)-M-methylbenzamide]
In vitro; mcf10a cells
  viability at 1 µM: 70.5%
[1]
  viability at 1 µM: 72.8%
[2]; compound 1 µM
  activity at 1 µM: 41.7%

## CCNC(=O)c1ccc(Nc2nc(Nc3cc(C4CC4)[nH]n3)c3ccccc3n2)cc1 [4af, 4-((4-((5-cyclopropyl-1G-pyrazol-3-yl)amino)quinazolin-2-yl)amino)-M-ethylbenzamide]
In vitro; mcf10a cells
  viability at 1 µM: 66.5%
[1]
  viability at 1 µM: 66.6%
[2]; compound 1 µM
  activity at 1 µM: 49.6%

## CC(C)(C)OC(=O)N1CC2C(C1)C2Nc1nc(Nc2cc(C3CC3)[nH]n2)c2ccccc2n1 (stereo not drawn) [4ag, sdqs-butyl 6-((4-((5-cyclopropyl-1G-pyrazol-3-yl)amino)quinazolin-2-yl)amino)-3-azabicyclo[3.1.0]hexane-3-carboxylate]
In vitro; mcf10a cells
  viability at 1 µM: 74.5%
[1]
  viability at 1 µM: 56.4%
[2]; compound 1 µM
  activity at 1 µM: 67.1%

## Cc1n[nH]c(C)c1Nc1nc(Nc2ccc(CC#N)cc2)nc2ccccc12 [compound 3d, 2-(4-((4-((3,5-dimethyl-1G-pyrazol-4-yl)amino)quinazolin-2-yl)amino)phenyl)acetonitrile]
In vitro; mcf10a cells
  viability at 1.1 µM: 101%
[1]
  viability at 1.1 µM: 132%
[2]
  activity at 1 µM: 93.7%

## N#CCc1ccc(Nc2nc(Nc3cn[nH]c3)c3ccccc3n2)cc1 [compound 3f, 2-(4-((4-((1G-pyrazol-4-yl)amino)quinazolin-2-yl)amino)phenyl)acetonitrile]
In vitro; mcf10a cells
  viability at 1.1 µM: 98.3%
[1]
  viability at 1.1 µM: 117%
[2]
  activity at 1 µM: 92.5%

## CC(C)S(=O)(=O)c1ccccc1Nc1nc(Nc2ccc(CC#N)cc2)nc2ccccc12 [compound 3g, 2-(4-((4-((2-(isopropylsulfonyl)phenyl)amino)quinazolin-2-yl)amino)phenyl)acetonitrile]
In vitro
  viability at 1.1 µM: 99.7%
[1]
  viability at 1.1 µM: 109%
[2]; footnote c: concentration 3.3 µM
  activity at 3.3 µM: 127%

## N#CCc1ccc(Nc2nc(Nc3ccc(Cl)nn3)c3ccccc3n2)cc1 [compound 3i, 2-(4-((4-((6-chloropyridazin-3-yl)amino)quinazolin-2-yl)amino)phenyl)acetonitrile]
In vitro
  viability at 1 µM: 51.8%
[1]
  viability at 1 µM: 95.6%
[2]; compound 1 µM
  activity at 1 µM: 126%

## N#CCc1ccc(Nc2nc(NC3=NC(=O)CS3)c3ccccc3n2)cc1 [compound 3j, 2-(4-((4-((4-oxo-4,5-dihydrothiazol-2-yl)amino)quinazolin-2-yl)amino)phenyl)acetonitrile]
In vitro
  viability at 1 µM: 84.2%
[1]
  viability at 1 µM: 108%
[2]; compound 1 µM
  activity at 1 µM: 92.5%

## N#CCc1ccc(Nc2nc(Nc3ccccc3F)c3ccccc3n2)cc1 [compound 3k, 2-(4-((4-((2-fluorophenyl)amino)quinazolin-2-yl)amino)phenyl)acetonitrile]
In vitro
  viability at 1 µM: 96.6%
[1]
  viability at 1 µM: 120%
[2]; compound 1 µM
  activity at 1 µM: 99.1%

## N#CCc1ccc(Nc2nc(Nc3nnc(C4CC4)s3)c3ccccc3n2)cc1 [compound 3l, 2-(4-((4-((5-cyclopropyl-1,3,4-thiadiazol-2-yl)amino)quinazolin-2-yl)amino)phenyl)acetonitrile]
In vitro
  viability at 1 µM: 104%
[1]
  viability at 1 µM: 80.5%
[2]; compound 1 µM
  activity at 1 µM: 114%
